The text below walks through data of patent US11684701B2, “Operating room coating applicator and method” (Ethicon, Inc., priority 2018, dated 2023).

The subject of one assay is microorganism. The conditions noted are these: French Percuflex catheters dip-coated, sterilized with ethylene oxide, stored; for thirty days after being coated; cited from earlier work.
For a further assay, the system named is Staphylococcus aureus. In words: Zone of inhibition test of gentamicin-coated stainless steel coupon on agar plate. Format: cell-based. To be noted: 4% gentamicin solution in water nebulized onto 0.5" polished 316 stainless steel coupon; incubated at 38° C. for 24 hours; initial S. aureus inoculum 10^5 bacteria per cubic centimeter. The text has this:
A filter paper disk, or other object, impregnated with a particular antimicrobial agent is applied to an agar medium that is inoculated with the test organism. Where the anti-microbial agent diffuses through the medium, and as long as the concentration of the antimicrobial agent is above the MIC, none of the susceptible organism will grow on or around the disk for some distance. This distance is called a zone of inhibition. […] The diameter of the zone of inhibition is inversely proportional to the MIC.
A 4% gentamicin solution in water was applied to a 0.5″ polished 316 stainless steel coupon using the device described in FIGS. 3A and 3B according to the cycle described in FIG. 10. The stainless steel coupon was then incubated at 38° C. for 24 hours in an agar plate containing an initial Staphylococcus aureus inoculum of 10^5 bacteria per cubic centimeter of solution.

`Oc1cc(Cl)ccc1Oc1ccc(Cl)cc1Cl` [2,4,4′-tricloro-2-hydroxydiphenyl ether]: the “antimicrobial properties (zone of inhibition)” value in the assay on microorganism is “produced a zone of inhibition”.
As to gentamicin, the “protective zone of inhibition formed around the coupon” value with Staphylococcus aureus is “approximately 8 mm”.
